Measurements: publication PMC8748775, “The sphingosine 1-phosphate receptor 2/4 antagonist JTE-013 elicits off-target effects on sphingolipid metabolism” (Scientific Reports, 2022)

Legend:
[1] = target: T1, S1P lyase (Homo sapiens, UniProt O95470); assay: fluorogenic S1P lyase assay in overexpressing lysate, […] DOP; assay type: cell-based
T1 construct: gene SGPL1; FLAG-tagged human S1P lyase overexpressed in HEK293T cells (whole cell lysate)
T1 sequence (O95470 1-568): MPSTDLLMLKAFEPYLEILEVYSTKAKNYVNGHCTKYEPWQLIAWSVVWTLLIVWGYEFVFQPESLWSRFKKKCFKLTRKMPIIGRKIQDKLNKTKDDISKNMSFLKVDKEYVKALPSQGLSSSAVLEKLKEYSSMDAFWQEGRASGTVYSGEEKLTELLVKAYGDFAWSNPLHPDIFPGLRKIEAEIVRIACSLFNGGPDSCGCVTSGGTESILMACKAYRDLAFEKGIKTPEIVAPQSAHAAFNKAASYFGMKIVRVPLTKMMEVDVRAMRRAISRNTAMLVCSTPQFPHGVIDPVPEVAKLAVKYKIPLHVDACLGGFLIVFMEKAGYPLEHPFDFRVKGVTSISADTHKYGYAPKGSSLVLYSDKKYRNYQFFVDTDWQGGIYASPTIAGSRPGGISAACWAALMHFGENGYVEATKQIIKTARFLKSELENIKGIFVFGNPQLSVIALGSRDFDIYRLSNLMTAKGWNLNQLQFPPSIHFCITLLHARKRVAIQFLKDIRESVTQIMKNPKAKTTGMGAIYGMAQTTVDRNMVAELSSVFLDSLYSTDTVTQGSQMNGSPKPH

[2] = target: T2, sphingosine kinase 1 (SK1) (Homo sapiens, UniProt Q9NYA1); assay: in vitro radiometric [γ-32P]ATP sphingosine kinase assay with purified enzyme; assay type: biochemical
T2 construct: gene SPHK1; purified recombinant human SK1

[3] = target: T3, sphingosine kinase 2 (SK2) (Homo sapiens, UniProt Q9NRA0); assay: as above; assay type: biochemical
T3 construct: gene SPHK2; purified recombinant human SK2
T3 sequence (Q9NRA0 1-654): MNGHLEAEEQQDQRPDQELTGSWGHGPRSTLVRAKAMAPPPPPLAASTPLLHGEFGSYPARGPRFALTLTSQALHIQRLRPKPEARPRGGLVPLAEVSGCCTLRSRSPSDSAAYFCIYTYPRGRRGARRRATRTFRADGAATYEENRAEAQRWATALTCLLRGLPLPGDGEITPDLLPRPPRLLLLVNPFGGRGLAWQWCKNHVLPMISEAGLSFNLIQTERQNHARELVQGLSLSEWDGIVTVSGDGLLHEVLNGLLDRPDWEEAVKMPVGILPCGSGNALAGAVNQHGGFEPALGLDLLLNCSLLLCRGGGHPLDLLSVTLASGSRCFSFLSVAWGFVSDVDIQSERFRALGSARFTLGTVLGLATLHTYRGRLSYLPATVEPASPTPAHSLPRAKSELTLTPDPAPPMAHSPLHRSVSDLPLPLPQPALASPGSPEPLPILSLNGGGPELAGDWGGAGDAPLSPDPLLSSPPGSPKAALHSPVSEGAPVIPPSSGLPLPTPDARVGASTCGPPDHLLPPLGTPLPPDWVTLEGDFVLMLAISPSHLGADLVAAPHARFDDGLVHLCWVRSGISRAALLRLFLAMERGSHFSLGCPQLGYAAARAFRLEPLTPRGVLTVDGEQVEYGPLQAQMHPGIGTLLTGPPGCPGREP

[4] = target: T4, dihydroceramide desaturase 1 (Des1) (Homo sapiens, UniProt O15121); assay: HPLC NBD-C6-dhCer conversion; Ki from Des1-overexpressing HEK293T lysates, competitive inhibition confirmed with purified Des1-FLAG plus CYB5; assay type: biochemical
T4 construct: gene DEGS1; Des1-FLAG (C-terminal FLAG), expressed in HEK293T cells; with cytochrome B5 (CYB5)

[5] = substrate: CCCCCCCCCCCCCCC[C@@H](O)[C@H](CO)NC(=O)CCCCCNc1ccc([N+](=O)[O-])c2nonc12; assay: HPLC conversion to NBD-C6-Cer; KM from Des1-overexpressing lysates, turnover also with purified Des1-FLAG; assay type: biochemical, Homo sapiens; conditions: NADPH; iron ((NH4)2Fe(SO4)[…] in purified assay)

T4 sequence (P00167 2-134 partner, one chain of several): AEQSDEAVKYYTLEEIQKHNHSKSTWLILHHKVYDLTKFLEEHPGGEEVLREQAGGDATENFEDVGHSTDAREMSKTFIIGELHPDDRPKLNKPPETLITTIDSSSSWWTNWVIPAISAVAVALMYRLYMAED
T2 sequence (Q9NYA1 whole entry): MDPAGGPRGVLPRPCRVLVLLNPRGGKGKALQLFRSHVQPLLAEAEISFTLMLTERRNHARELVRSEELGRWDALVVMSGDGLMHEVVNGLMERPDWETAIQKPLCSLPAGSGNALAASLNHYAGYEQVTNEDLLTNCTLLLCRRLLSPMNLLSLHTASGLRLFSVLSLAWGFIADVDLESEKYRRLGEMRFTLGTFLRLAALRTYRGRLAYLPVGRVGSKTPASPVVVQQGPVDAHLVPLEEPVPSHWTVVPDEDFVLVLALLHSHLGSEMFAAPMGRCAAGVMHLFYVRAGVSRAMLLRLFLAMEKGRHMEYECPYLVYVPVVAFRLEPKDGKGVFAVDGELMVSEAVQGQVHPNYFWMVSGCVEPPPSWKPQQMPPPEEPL

`Cc1ncc(CO)c(C)c1O` [DOP, 4-deoxypyridoxine] was tested, and the “fluorogenic S1P lyase assay in overexpressing lysate, 1.25 mM DOP” value [1] was “known S1P lyase inhibitors 4-deoxypyridoxine and FTY720 both showed inhibition of S1P lyase activity”.

Work on `Cc1nn(C)c2nc(NNC(=O)Nc3c(Cl)cncc3Cl)cc(C(C)C)c12` [JTE-013] yielded an IC50 [2] of 25.1 ± 2.7 µM, an IC50 [3] of 4.3 ± 0.5 µM and a Ki [4] of 9.2 ± 0.8 µM.

B1: dihydroceramide desaturase 1 (Des1) (Homo sapiens) (protein)
chain: GSRVSREDFEWVYTDQPHADRRREILAKYPEIKSLMKPDPNLIWIIIMMVLTQLGAFYIVKDLDWKWVIFGAYAFGSCINHSMTLAIHEIAHNAAFGNCKAMWNRWFGMFANLPIGIPYSISFKRYHMDHHRYLGADGVDVDIPTDFEGWFFCTAFRKFIWVILQPLFYAFRPLFINPKPITYLEVINTVAQVTFDILIYYFLGIKSLVYMLAASLLGLGLHPISGHFIAEHYMFLKGHETYSYYGPLNLLTFNVGYHNEHHDFPNIPGKSLPLVRKIAAEYYDNLPHYNSWIKVLYDFVMDDTISPYSRMKRHQKGEMVLE
notes: Des1-FLAG (C-terminal FLAG), expressed in HEK293T cells; with cytochrome B5 (CYB5)
B1 showed a Km [5] of 0.3 µM.
